From ChEMBL document CHEMBL4373646, “Synthesis, ribosomal selectivity, and antibacterial activity of netilmicin 4'-derivatives” (Medchemcomm, 2019)
In brackets after ≈: the same amount, converted by molar mass.

Experiments:
Bacterial 70S ribosome = experiment: Inhibition of Mycobacterium smegmatis wild type ribosomes assessed as inhibition of translation activity using Firefly luciferase mRNA reporter based luminescence analysis; type: subcellular, Mycolicibacterium smegmatis
[1] = Inhibition of human mitochondrial ribosome Mit 13 hybridized with Mycobacterium smegmatis ribosome assessed as inhibition of translation activity using Firefly luciferase mRNA reporter based luminescence analysis
[2] = Inhibition of human mitochondrial ribosome Mit 13 A1555G mutant hybridized with Mycobacterium smegmatis ribosome assessed as inhibition of translation activity using Firefly luciferase mRNA reporter based luminescence analysis
[3] = system: human mitochondrial ribosome (Mit 13 hybrid); experiment: Selectivity ratio of IC50 for inhibition of human mitochondrial ribosome Mit 13 hybridized with Mycobacterium smegmatis ribosome to IC50 for inhibition of Mycobacterium smegmatis wild type ribosomes; type: toxicity; settings: read-out: Ratio IC50
[4] = Inhibition of human cytoplasmic ribosome Cyt 14 hybridized with Mycobacterium smegmatis ribosome assessed as inhibition of translation activity using Firefly luciferase mRNA reporter based luminescence analysis
[5] = system: human cytoplasmic ribosome (Cyt 14 hybrid); experiment: Selectivity ratio of IC50 for inhibition of human cytoplasmic ribosome Cyt 14 hybridized with Mycobacterium smegmatis ribosomes to IC50 for inhibition of Mycobacterium smegmatis wild type ribosomes; type: toxicity; settings: read-out: Ratio IC50
[6] = system: human mitochondrial ribosome A1555G mutant (Mit 13 A1555G hybrid); experiment: Selectivity ratio of IC50 for inhibition of human mitochondrial ribosome Mit 13 A1555G mutant hybridized with Mycobacterium smegmatis ribosomes to IC50 for inhibition of Mycobacterium smegmatis wild type ribosomes; type: toxicity; settings: read-out: Ratio IC50
Pseudomonas aeruginosa [7] = experiment: Antibacterial activity against Pseudomonas aeruginosa clinical isolate AG031; type: functional
Staphylococcus aureus [8] = experiment: Antibacterial activity against methicillin-resistant Staphylococcus aureus clinical isolate AG039; type: functional
Escherichia coli [9] = experiment: Antibacterial activity against Escherichia coli clinical isolate AG001; type: functional
Pseudomonas aeruginosa [10] = experiment: Antibacterial activity against Pseudomonas aeruginosa clinical isolate AG033; type: functional
Escherichia coli [11] = experiment: Antibacterial activity against Escherichia coli clinical isolate AG055; type: functional
Staphylococcus aureus [12] = experiment: Antibacterial activity against methicillin-resistant Staphylococcus aureus clinical isolate AG038; type: functional
Escherichia coli [13] = experiment: Antibacterial activity against Escherichia coli clinical isolate AG003; type: functional
Pseudomonas aeruginosa [14] = experiment: Antibacterial activity against Pseudomonas aeruginosa clinical isolate AG032; type: functional
Staphylococcus aureus [15] = experiment: Antibacterial activity against methicillin-resistant Staphylococcus aureus clinical isolate AG042 harboring with ANT4',4\" gene; type: functional

| Compound | IC50 (Bacterial 70S ribosome) | IC50 [1] | IC50 [2] | selectivity ratio [3] | IC50 [4] | selectivity ratio [5] | selectivity ratio [6] | MIC (Pseudomonas aeruginosa [7]) | MIC (Staphylococcus aureus [8]) | MIC (Escherichia coli [9]) | MIC (Pseudomonas aeruginosa [10]) | MIC (Escherichia coli [11]) | MIC (Staphylococcus aureus [12]) | MIC (Escherichia coli [13]) | MIC (Pseudomonas aeruginosa [14]) | MIC (Staphylococcus aureus [15]) |
| --- | --- | --- | --- | --- | --- | --- | --- | --- | --- | --- | --- | --- | --- | --- | --- | --- |
| CCC[C@H]1[C@H](O)[C@@H](N)[C@@H](O[C@H]2[C@H](O[C@@H]3O[C@H](CO)[C@@H](O[C@H]4O[C@@H](CN)[C@@H](O)[C@H](O)[C@H]4N)[C@H]3O)[C@@H](O)[C@H](N)C[C@@H]2N)O[C@@H]1CO | 31 nM | 167 µM | 52 µM | 5390 | 64 µM | 2060 | 1680 |  |  |  |  |  |  |  |  |  |
| CCN[C@@H]1C[C@H](N)[C@@H](O[C@H]2OC(CN)=C(SCC)C[C@H]2N)[C@H](O)[C@H]1O[C@H]1OC[C@](C)(O)[C@H](NC)[C@H]1O | 670 nM | 256 µM | 46 µM | 381 | 783 µM | 1160 | 69 | > 128 µg/mL | 32 µg/mL (≈ 59.7 µM) | 16 µg/mL (≈ 29.9 µM) | > 128 µg/mL | 8 to 16 µg/mL (≈ 14.9 to 29.9 µM) | 32 µg/mL (≈ 59.7 µM) | 8 to 16 µg/mL (≈ 14.9 to 29.9 µM) | 128 µg/mL (≈ 239 µM) | 128 µg/mL (≈ 239 µM) |
| CCN[C@@H]1C[C@H](N)[C@@H](O[C@H]2OC(CN)=C(c3ccccc3)C[C@H]2N)[C@H](O)[C@H]1O[C@H]1OC[C@](C)(O)[C@H](NC)[C@H]1O | 270 nM | 29 µM | 3.5 µM | 106 | 81 µM | 299 | 13 | 16 to 32 µg/mL (≈ 29 to 58 µM) | 16 µg/mL (≈ 29 µM) | 4 µg/mL (≈ 7.25 µM) | > 64 µg/mL | 2 µg/mL (≈ 3.63 µM) | 8 µg/mL (≈ 14.5 µM) | 64 µg/mL (≈ 116 µM) | 16 to 32 µg/mL (≈ 29 to 58 µM) | 64 µg/mL (≈ 116 µM) |
| CCCCC1=C(CN)O[C@H](O[C@H]2[C@H](O)[C@@H](O[C@H]3OC[C@](C)(O)[C@H](NC)[C@H]3O)[C@H](NCC)C[C@@H]2N)[C@H](N)C1 | 580 nM | 408 µM | 22 µM | 699 | 940 µM | 1610 | 37 | 64 µg/mL (≈ 120 µM) | 16 µg/mL (≈ 30.1 µM) | 8 to 16 µg/mL (≈ 15 to 30.1 µM) | > 128 µg/mL | 5 µg/mL (≈ 9.4 µM) | 16 µg/mL (≈ 30.1 µM) | 8 to 16 µg/mL (≈ 15 to 30.1 µM) | 64 µg/mL (≈ 120 µM) | 64 µg/mL (≈ 120 µM) |
| CCS[C@H]1[C@H](O)[C@@H](N)[C@@H](O[C@H]2[C@H](O[C@@H]3O[C@H](CO)[C@@H](O[C@H]4O[C@@H](CN)[C@@H](O)[C@H](O)[C@H]4N)[C@H]3O)[C@@H](O)[C@H](N)C[C@@H]2N)O[C@@H]1CO | 53 nM | 166 µM | 76 µM | 3130 | 104 µM | 1960 | 1430 |  |  |  |  |  |  |  |  |  |
| CCN[C@@H]1C[C@H](N)[C@@H](O[C@H]2OC(CN)=C(Cl)C[C@H]2N)[C@H](O)[C@H]1O[C@H]1OC[C@](C)(O)[C@H](NC)[C@H]1O | 100 nM | 58 µM | 1.5 µM | 580 | > 500 µM | > 5000 | 15 | 4 µg/mL (≈ 7.84 µM) | 8 µg/mL (≈ 15.7 µM) | 4 µg/mL (≈ 7.84 µM) | > 128 µg/mL | 2 to 4 µg/mL (≈ 3.92 to 7.84 µM) | 4 µg/mL (≈ 7.84 µM) | 16 to 32 µg/mL (≈ 31.4 to 62.7 µM) | 64 µg/mL (≈ 125 µM) | 32 µg/mL (≈ 62.7 µM) |
| NC[C@@H]1O[C@H](O[C@H]2[C@@H](O)[C@H](O[C@@H]3[C@@H](O)[C@H](N)C[C@H](N)[C@H]3O[C@H]3O[C@H](CO)[C@@H](O)[C@H](O)[C@H]3N)O[C@@H]2CO)[C@H](N)[C@@H](O)[C@@H]1O [PAROMOMYCIN] | 38 nM | 142 µM | 12 µM | 3740 | 31 µM | 816 | 315 |  |  |  |  |  |  |  |  |  |
| CCN[C@@H]1C[C@H](N)[C@@H](O[C@H]2OC(CN)=C(Br)C[C@H]2N)[C@H](O)[C@H]1O[C@H]1OC[C@](C)(O)[C@H](NC)[C@H]1O | 100 nM | 52 µM | 1.2 µM | 520 | 146 µM | 1460 | 12 | 8 µg/mL (≈ 14.4 µM) | 8 to 16 µg/mL (≈ 14.4 to 28.9 µM) | 2 µg/mL (≈ 3.61 µM) | 64 µg/mL (≈ 115 µM) | 1 to 2 µg/mL (≈ 1.8 to 3.61 µM) | 4 µg/mL (≈ 7.21 µM) | 16 µg/mL (≈ 28.9 µM) | 8 µg/mL (≈ 14.4 µM) | 64 µg/mL (≈ 115 µM) |
| CCN[C@@H]1C[C@H](N)[C@@H](O[C@H]2OC(CN)=C(I)C[C@H]2N)[C@H](O)[C@H]1O[C@H]1OC[C@](C)(O)[C@H](NC)[C@H]1O | 100 nM | 49 µM | 1.5 µM | 490 | 221 µM | 2210 | 15 | 4 to 8 µg/mL (≈ 6.65 to 13.3 µM) | 16 µg/mL (≈ 26.6 µM) | 2 µg/mL (≈ 3.33 µM) | > 128 µg/mL | 1 to 2 µg/mL (≈ 1.66 to 3.33 µM) | 4 to 8 µg/mL (≈ 6.65 to 13.3 µM) | 16 µg/mL (≈ 26.6 µM) | 4 to 8 µg/mL (≈ 6.65 to 13.3 µM) | 64 µg/mL (≈ 106 µM) |
| CCN[C@@H]1C[C@H](N)[C@@H](O[C@H]2OC(CN)=CC[C@H]2N)[C@H](O)[C@H]1O[C@H]1OC[C@](C)(O)[C@H](NC)[C@H]1O [NETILMICIN] | 20 nM | 28 µM | 0.7 µM | 1400 | 69 µM | 3450 | 35 | 2 µg/mL (≈ 4.21 µM) | 0.5 µg/mL (≈ 1.05 µM) | 2 µg/mL (≈ 4.21 µM) | > 128 µg/mL | 2 µg/mL (≈ 4.21 µM) | 0.5 µg/mL (≈ 1.05 µM) | 8 µg/mL (≈ 16.8 µM) | 2 µg/mL (≈ 4.21 µM) | 2 µg/mL (≈ 4.21 µM) |
